For twelve compounds, T/C results are on record in PubChem BioAssay AID192 (DTP/NCI, 2004).

“And” between values parts separate entries of the source, which are not always exact repeats. Equal values may be shown once. Inconclusive results and toxic doses are left out.

The experiment deals with BDF1 mice, B16 melanoma ip, median survival T/C. Kind of experiment: NCI In Vivo Anticancer Drug Screen. Data for tumor model B16 Melanoma (intraperitoneal) in B6D2F1 (BDF1) mice. The settings on record: endpoint: median survival time, higher = longer survival. In a few lines:
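Read-out: survival or tumor size, given as treated/control ratio. Controls received vehicle only; animals bore transplantable tumors.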

Where [1] appears, read: dose: 100.0 mg/kg/injection, schedule: Q01DX009 (ip), vehicle: Klucel (hydroxypropylcellulose) (HPC).
Where [2] appears, read: dose: 200.0 mg/kg/injection, schedule: Q01DX009 (ip), vehicle: Klucel (hydroxypropylcellulose) (HPC).
Where [3] appears, read: dose: 400.0 mg/kg/injection, schedule: Q01DX009 (ip), vehicle: Klucel (hydroxypropylcellulose) (HPC).
The mark [4] stands for this setting: dose: 6.25 mg/kg/injection, schedule: Q01DX009 (ip), vehicle: saline.
Setting [5] is: dose: 25.0 mg/kg/injection, schedule: Q01DX009 (ip), vehicle: Klucel (hydroxypropylcellulose) (HPC).
Setting [6] is: dose: 50.0 mg/kg/injection, schedule: Q01DX009 (ip), vehicle: Klucel (hydroxypropylcellulose) (HPC).
The mark [7] stands for this setting: dose: 12.5 mg/kg/injection, schedule: Q01DX009 (ip), vehicle: Klucel (hydroxypropylcellulose) (HPC).

With `COc1cc2c(=O)oc3c(OC)c(O)cc4c(=O)oc(c1OC)c2c34`, the T/C is, setting by setting: (dose: 4.0 mg/kg/injection, schedule: Q01DX009 (ip), vehicle: saline with Tween-80) 100 % of control; (dose: 8.0 mg/kg/injection, schedule: Q01DX009 (ip), vehicle: saline with Tween-80) 94 % of control; (dose: 16.0 mg/kg/injection, schedule: Q01DX009 (ip), vehicle: saline with Tween-80) 96 % of control; (dose: 32.0 mg/kg/injection, schedule: Q01DX009 (ip), vehicle: saline with Tween-80) 90 % of control.

As to `C=CCc1ccccc1C`, the T/C under setting [1] was 104 % of control, the T/C under setting [2] is 105 % of control and the T/C under setting [3] is 90 % of control.

Regarding `C=C1CC2(OC1=O)C(=O)N(C)c1ccc(I)cc12` (centres undefined), the T/C is 100 % of control and 104 % of control under setting [4]; 101 % of control and 112 % of control (dose: 12.5 mg/kg/injection, schedule: Q01DX009 (ip), vehicle: saline); 95 % of control and 104 % of control (dose: 25.0 mg/kg/injection, schedule: Q01DX009 (ip), vehicle: saline); 110 % of control (dose: 50.0 mg/kg/injection, schedule: Q01DX009 (ip), vehicle: saline).

As for `COc1ccc(CCN2CC(=O)NC(=O)C2)cc1OC`, the T/C is 97 % of control under setting [5]; 91 % of control under setting [6]; 88 % of control under setting [1]; 94 % of control under setting [2]; 91 % of control under setting [3].

`COC(=O)[C@H]1[C@H]2C[C@@H]3c4[nH]c5cc(OC)ccc5c4CCN3C[C@H]2C[C@@H](OC(=O)c2cc(OC)c(OC)c(OC)c2)[C@@H]1OC`: the T/C reads like this: (dose: 0.04 mg/kg/injection, schedule: Q01DX009 (ip), vehicle: saline) 91 % of control; (dose: 0.09 mg/kg/injection, schedule: Q01DX009 (ip), vehicle: saline) 91 % of control; (dose: 0.19 mg/kg/injection, schedule: Q01DX009 (ip), vehicle: saline) 90 % of control; (dose: 0.39 mg/kg/injection, schedule: Q01DX009 (ip), vehicle: saline) 91 % of control; (dose: 0.78 mg/kg/injection, schedule: Q01DX009 (ip), vehicle: saline) 88 % of control.

Take `CO[C@H]1C[C@](C)(O)Cc2cc3c(c(O)c21)C(=O)c1c(O)cc2c(c1C3=O)O[C@@H]1O[C@@]2(C)[C@H](O)[C@@H](N(C)C)[C@@H]1O`: the T/C (dose: 0.78 mg/kg/injection, schedule: Q01DX009 (ip), vehicle: other) was 110 % of control; the T/C (dose: 1.56 mg/kg/injection, schedule: Q01DX009 (ip), vehicle: other) was 118 % of control; the T/C (dose: 2.3 mg/kg/injection, schedule: Q01DX005 (ip), vehicle: other) was 169 % of control; the T/C (dose: 2.3 mg/kg/injection, schedule: Q01DX005 (iv), vehicle: other) is 97 % of control; the T/C (dose: 2.3 mg/kg/injection, schedule: Q01DX009 (ip), vehicle: other) is 194 % of control; the T/C (dose: 3.12 mg/kg/injection, schedule: Q01DX009 (ip), vehicle: other) was 159 % of control. For the same compound, the T/C by setting is: (dose: 3.13 mg/kg/injection, schedule: Q01DX009 (ip), vehicle: other) 167 % of control; (dose: 4.5 mg/kg/injection, schedule: Q01DX005 (ip), vehicle: other) 200 % of control; (dose: 4.5 mg/kg/injection, schedule: Q01DX005 (iv), vehicle: other) 110 % of control; (dose: 4.5 mg/kg/injection, schedule: Q01DX005 (oral), vehicle: other) 95 % of control; (dose: 4.5 mg/kg/injection, schedule: Q01DX009 (ip), vehicle: other) 185 % of control; (dose: 4.5 mg/kg/injection, schedule: Q01DX009 (oral), vehicle: other) 99 % of control. Further, the T/C was 173 % of control and 177 % of control and 183 % of control (dose: 6.25 mg/kg/injection, schedule: Q01DX009 (ip), vehicle: other); 213 % of control (dose: 9.0 mg/kg/injection, schedule: Q01DX005 (ip), vehicle: other); 112 % of control (dose: 9.0 mg/kg/injection, schedule: Q01DX005 (iv), vehicle: other); 97 % of control (dose: 9.0 mg/kg/injection, schedule: Q01DX005 (oral), vehicle: other); 272 % of control (dose: 9.0 mg/kg/injection, schedule: Q01DX009 (ip), vehicle: other); 107 % of control (dose: 9.0 mg/kg/injection, schedule: Q01DX009 (oral), vehicle: other). The T/C (dose: 10.8 mg/kg/injection, schedule: Q04DX003 (ip), vehicle: lactic acid) was 203 % of control; the T/C (dose: 12.5 mg/kg/injection, schedule: Q01DX009 (ip), vehicle: other) is 167 % of control and 191 % of control and 209 % of control; the T/C (dose: 18.0 mg/kg/injection, schedule: Q01DX001 (ip), vehicle: other) was 158 % of control; the T/C (dose: 18.0 mg/kg/injection, schedule: Q01DX001 (iv), vehicle: other) was 100 % of control; the T/C (dose: 18.0 mg/kg/injection, schedule: Q01DX005 (ip), vehicle: other) is 236 % of control; the T/C (dose: 18.0 mg/kg/injection, schedule: Q01DX005 (oral), vehicle: other) was 108 % of control. Besides, the T/C reads like this: (dose: 18.0 mg/kg/injection, schedule: Q01DX009 (oral), vehicle: other) 116 % of control; (dose: 25.0 mg/kg/injection, schedule: Q01DX001 (ip), vehicle: water) 100 % of control; (dose: 36.0 mg/kg/injection, schedule: Q01DX001 (ip), vehicle: other) 153 % of control; (dose: 36.0 mg/kg/injection, schedule: Q01DX001 (oral), vehicle: other) 103 % of control; (dose: 36.0 mg/kg/injection, schedule: Q01DX005 (oral), vehicle: other) 121 % of control; (dose: 72.0 mg/kg/injection, schedule: Q01DX001 (oral), vehicle: other) 119 % of control.

`Cc1ccc(N=Nc2c(O)ccc3n[nH]nc23)cc1`: the T/C under setting [1] is 96 % of control.

Turning to `O=C1CCCC2C1C1(O)CCC2(O)c2cccc(O)c21` (centres undefined), the T/C is 90 % of control (dose: 1.56 mg/kg/injection, schedule: Q01DX009 (ip), vehicle: saline); 95 % of control (dose: 3.12 mg/kg/injection, schedule: Q01DX009 (ip), vehicle: saline); 93 % of control (dose: 3.12 mg/kg/injection, schedule: Q04DX003 (ip), vehicle: saline); 93 % of control under setting [4]; 91 % of control (dose: 6.25 mg/kg/injection, schedule: Q04DX003 (ip), vehicle: saline); 95 % of control under setting [7]. The T/C (dose: 12.5 mg/kg/injection, schedule: Q04DX003 (ip), vehicle: saline) was 91 % of control; the T/C (dose: 18.0 mg/kg/injection, schedule: Q04DX003 (ip), vehicle: saline) was 105 % of control; the T/C (dose: 28.0 mg/kg/injection, schedule: Q04DX003 (ip), vehicle: saline) is 103 % of control.

As to `CC(=O)NC(C=O)C(O)C(O)C(O)C(=O)O` (centres undefined), the T/C is 101 % of control under setting [5], 100 % of control under setting [6] and 92 % of control under setting [1].

With `CC(=O)O[C@]1(C(C)=O)CC[C@H]2[C@@H]3C[C@H](C)C4=CC(=O)CC[C@]4(C)[C@H]3CC[C@@]21C`, the T/C was 120 % of control under setting [7]; 117 % of control under setting [5]; 100 % of control under setting [6]; 96 % of control under setting [1]; 89 % of control under setting [2]; 96 % of control under setting [3]. In addition, the T/C (dose: 800.0 mg/kg/injection, schedule: Q01DX009 (ip), vehicle: Klucel (hydroxypropylcellulose) (HPC)) was 89 % of control.

On to `COc1cc2c(cc1OC)/C(=C\C(=O)N1CCCC1=O)CCC2`, for which the T/C under setting [1] was 97 % of control, the T/C under setting [2] is 100 % of control and the T/C under setting [3] is 117 % of control.

As to `ClC1=C(Cl)C(Cl)=C(Cl)C1=Cc1ccccc1`, the T/C reads like this: (dose: 1.56 mg/kg/injection, schedule: Q01DX009 (ip), vehicle: saline with Tween-80) 97 % of control; (dose: 3.13 mg/kg/injection, schedule: Q01DX009 (ip), vehicle: saline with Tween-80) 92 % of control; (dose: 6.25 mg/kg/injection, schedule: Q01DX009 (ip), vehicle: saline with Tween-80) 102 % of control; (dose: 12.5 mg/kg/injection, schedule: Q01DX009 (ip), vehicle: saline with Tween-80) 111 % of control; (dose: 25.0 mg/kg/injection, schedule: Q01DX009 (ip), vehicle: saline with Tween-80) 95 % of control.
